Data set [1] relates to humanized embryonic nephrocyte (HEK293 cell). The experiment in a line: Cytotoxicity, MTS method, HEK293 cell. Type of data set: cell-based. Particulars: Homo sapiens, HEK293, MTS method; read-out: IC50(mM) HEK293 cell. From the text: (§1) The toxicity of compounds is detected with MTS method in the immortalized mice bone marrowmacrophages (IBMM), mice embryonic fibroblast (NIH3t3) and humanized embryonic nephrocyte.

Data set [2] concerns immortalized mice bone marrowmacrophages (IBMM). Put plainly: Cytotoxicity, MTS method, IBMM cell. Type of data set: cell-based. To be noted: Mus musculus, Bone marrow macrophage, MTS method; read-out: IC50(mM) IBMM cell.
From the text: as §1
A general note: Formazan colour is commonly taken as a measure of viable cells.

Data set [3] concerns mice embryonic fibroblast (NIH3t3). The experiment in a line: Cytotoxicity, MTS method, NIH3T3 cell. Type of data set: cell-based. Particulars: Mus musculus, NIH3T3, MTS method; read-out: IC50(mM) NIH3T3 cell.
From the text: as §1

Data set [4] in a line: Release experiment of target compound in human plasma. To be noted: 37° C., 5 min to 9 h.
Procedure: Mobile phase: gradient elution; A: water; B: methanol;
Chromatographic column: CAPCEL PAK MF PH-1;
Detecting instrument: TQ-S; ion source: APCI; ion detection mode: MRM;
Dissolving the target compound with DMSO, then diluting to 5 μg/mL with the normal saline of 0.9%. The human blank plasma after subpackage is preserved at −70° C., unfreezing in a refrigerator at 4° C. when used. Take 20 μL of the blank plasma, adding 20 μL of the target compound solution as above formulated, vortexing for 15 s, and left it in the water bath at 37° C. […] Take the supernatant and inject 10 μL for detection.

What is called IC50 is the concentration that inhibits the measured activity by half.

Take `COc1ccc(OC(=O)c2ccccc2)c(C(C)(C)C)c1` [XH2005, 2-tert-butyl-4-methoxyphenol benzoate]: the IC50 in data set [1] turned out to be 0.082 mM; in data set [2], 0.439 mM; in data set [3], 0.0875 mM. In addition, the “release of BHA in human plasma” value in data set [4] is listed as “releases BHA”.
The matching figures for `COc1ccc(OC(=O)C2=CCCCC2)c(C(C)(C)C)c1` [XH2015, 2-tert-butyl-4-methoxyphenol cyclohexenecarboxylate]: 0.109 mM, 0.147 mM, 0.194 mM and “releases BHA”.
As to `COc1ccc(OC(=O)Cc2ccc(OC)c(OC)c2)c(C(C)(C)C)c1` [XH2018, (2-tert-butyl-4-methoxyphenol) 3,4-dimethoxyphenylacetate], the figures for the IC50 in data set [1], in data set [2] and in data set [3] were 0.386 mM, 0.13 mM and 0.333 mM, respectively. Besides, in data set [4], the “release of BHA in human plasma” value is on record as “releases BHA”.
For `CC#CC(=O)Oc1ccc(OC)cc1C(C)(C)C` [XH2019, 2-tert-butyl-4-methoxyphenol butynoate], the IC50 in data set [1] worked out at 0.037 mM; in data set [2], 0.024 mM; in data set [3], 0.0476 mM. In addition, the “release of BHA in human plasma” value in data set [4] is “releases BHA”.
For `COc1ccc(OC(=O)Cc2c[nH]c3ccccc23)c(C(C)(C)C)c1` [XH2023, (2-tert-butyl-4-methoxyphenol) (1H-indole-3-yl)acetate], the IC50 in data set [1] is 0.03 mM; in data set [2], 0.0065 mM; in data set [3], 0.065 mM. In addition, in data set [4], the “release of BHA in human plasma” value is “releases BHA”.
With `COc1ccc(OC(=O)c2ccc3ccccc3c2)c(C(C)(C)C)c1` [XH2036-4, (2-tert-butyl-4-methoxyphenol) 2-naphthoate], the results for the IC50 in data set [1], in data set [2] and in data set [3] were 0.253 mM, 0.23 mM and 0.232 mM, respectively. For the same compound, in data set [4], the “release of BHA in human plasma” value is “releases BHA”.
For the compound `COc1ccc(OC(=O)c2cc3ccccc3[nH]2)c(C(C)(C)C)c1` [XH2038-3, (2-tert-butyl-4-methoxyphenol) 2-indoleformate], the IC50 in data set [1] was 0.205 mM; in data set [2], 0.263 mM; in data set [3], 0.517 mM. The “release of BHA in human plasma” value in data set [4] is “releases BHA”.
Consider `COc1ccc(OC(=O)Cc2cccs2)c(C(C)(C)C)c1` [XH2038-5, (2-tert-butyl-4-methoxyphenol) 2-thiopheneacetate], for which the results for the IC50 in data set [1], in data set [2] and in data set [3] were 0.266 mM, 0.202 mM and 0.146 mM, respectively. Besides, in data set [4], the “release of BHA in human plasma” value is recorded as “releases BHA”.
`C#CC(=O)Oc1ccc(OC)cc1C(C)(C)C` [XH2039-2, (2-tert-butyl-4-methoxyphenol) propiolate]: the IC50 in data set [1] worked out at 0.125 mM; in data set [2], 0.159 mM; in data set [3], 0.248 mM. In addition, the “release of BHA in human plasma” value in data set [4] is “releases BHA”.
In the same order, the values of `COc1ccc(OC(=O)CC2CCCCC2)c(C(C)(C)C)c1` [XH2039-5, (2-tert-butyl-4-methoxyphenol) cyclohexylacetate] are 0.087 mM, 0.067 mM, 0.106 mM and “releases BHA”.
As for `COc1ccc(OC(=O)C2CCCC2)c(C(C)(C)C)c1` [XH2039-6, (2-tert-butyl-4-methoxyphenol) cyclopentanecarboxylate], the IC50 in data set [1] is 0.136 mM; in data set [2], 0.171 mM; in data set [3] it was 0.229 mM. Moreover, the “release of BHA in human plasma” value in data set [4] was “releases BHA”.
The matching figures for `COc1ccc(OC(=O)CC2CC2)c(C(C)(C)C)c1` [XH2040-2, (2-tert-butyl-4-methoxyphenol) cyclopropylacetate]: 0.237 mM, 0.202 mM, 0.232 mM and “releases BHA”.
Take `CCCCCCCC(=O)Oc1ccc(OC)cc1C(C)(C)C` [XH2040-4, (2-tert-butyl-4-methoxyphenol) octanoate]: the IC50 amounted to 0.283 mM in data set [1], 0.198 mM in data set [2] and 0.366 mM in data set [3]. Also, the “release of BHA in human plasma” value in data set [4] is “releases BHA”.

The record behind these values is patent US10786481B2, “Hydroquinone compounds, preparation methods therefor, and use in anti-tumor or immunomodulation therapy” (Biomedical Analysis Center, Academy of Military Medical …, priority 2016, dated 2020).
